Assay results taken from patent publication US9994525B2, “H3 antagonists containing phenoxypiperidine core structure” (RICHTER GEDEON NYRT., priority 2013, dated 2018).
Counter-ions that a name gives are not always drawn.

Legend:
[1] = biological target: rat histamine H3 receptors (Rattus norvegicus (Rat), UniProt Q9QYN8); experiment: rat histamine H3 receptor in vitro binding assay, N-α-[Methyl-3H]methylhistamine radioligand, rat cortex membrane; settings: 1 nM radioligand, read-out: rH3 Ki
Method: The in vitro affinity of the compounds of the present invention for rat histamine H3 receptors can be determined according to the following procedure.
The rat histamine H3 receptor membrane was prepared as previously described by Witte et al. (British Journal of Pharmacol. 1-14, 2006). Male Sprague-Dawley rats were decapitated, their brains were removed and the cortex was isolated. The obtained tissues were homogenized in Tris-EDTA buffer (50 mM Tris-HCl, pH 7.4, 5 mM EDTA, 2 aprotinin, 1 mM benzamidine, 2 μg/ml leupeptin, 1 pepstatin) by a blender homogenizer (Ultra-Turrax). The homogenate was centrifuged at 40000 g for 20 min at 4° C. The membrane pellets were further purified by repeating the above homogenization and centrifugation steps. Final membrane preparations were obtained by rehomogenizing the pellets in 1:10 ratio in Tris-EDTA buffer (50 mM Tris-HCl, pH 7.4, 5 mM EDTA). The so obtained membrane preparation was divided into aliquots, flash frozen and stored at −80° C. until use. Protein content was determined by Lowry method using bovine serum albumin (BSA) as standard.
Receptor binding assays were performed in at least 5 concentrations, with two parallel samples in each concentrations, in at least two independent experiments using the binding buffer (50 mM Tris-HCl, pH 7.4, 5 mM MgCl2), rat H3 membrane (140 μg protein/tube), and N-α-[Methyl-^3H]methylhistamine dihydrochloride (1 nM) as radioligand. Non-specific binding was determined in the presence of 10 μM thioperamide. The samples were incubated in a final volume of 0.50 ml for 30 min at 25° C. Binding reactions were terminated by rapid filtration through UniFilter® GF/B™ fiber glass filters presoaked for at least 2 h in 0.5% polyethylene imine (PEI). The filterplates were washed nine times with 0.5 ml of ice-cold washing buffer (50 mM Tris-HCl, pH 7.4, 5 mM MgCl2, 10 μg/ml saponine). The filterplates were dried at 50° C. for 45 min and 40 μl of Microscint20 (Packard) scintillation cocktail was added to each well. Filters radioactivity was determined by TopCount (Packard) scintillation counter.
The ligand displacement by the compounds of the present invention was determined in at least two parallel experiments. The specific radioligand binding was defined as the difference between the total binding and the non-specific binding determined in the presence of excess of unlabelled ligand or test compounds used to specifically displace the radioligand. Results were expressed as a percent inhibition of specific binding obtained in the presence of test compounds. IC50 values were calculated from concentration-displacement curves by sigmoidal fitting using GraphPad Prism Software 4.0. Inhibition constants (Ki values) were calculated using the Cheng-Prusoff equation (Cheng Y C and Prusoff W H (1973) Biochem Pharmacol 22:3099-3108).
The affinity at rat H3 receptors of compounds of the present invention is illustrated by the following table.

[2] = cited from earlier work
[3] = biological target: hERG potassium channel (Homo sapiens (Human), UniProt Q12809); settings: cited from earlier work
Chain of hERG potassium channel (Q12809 whole entry): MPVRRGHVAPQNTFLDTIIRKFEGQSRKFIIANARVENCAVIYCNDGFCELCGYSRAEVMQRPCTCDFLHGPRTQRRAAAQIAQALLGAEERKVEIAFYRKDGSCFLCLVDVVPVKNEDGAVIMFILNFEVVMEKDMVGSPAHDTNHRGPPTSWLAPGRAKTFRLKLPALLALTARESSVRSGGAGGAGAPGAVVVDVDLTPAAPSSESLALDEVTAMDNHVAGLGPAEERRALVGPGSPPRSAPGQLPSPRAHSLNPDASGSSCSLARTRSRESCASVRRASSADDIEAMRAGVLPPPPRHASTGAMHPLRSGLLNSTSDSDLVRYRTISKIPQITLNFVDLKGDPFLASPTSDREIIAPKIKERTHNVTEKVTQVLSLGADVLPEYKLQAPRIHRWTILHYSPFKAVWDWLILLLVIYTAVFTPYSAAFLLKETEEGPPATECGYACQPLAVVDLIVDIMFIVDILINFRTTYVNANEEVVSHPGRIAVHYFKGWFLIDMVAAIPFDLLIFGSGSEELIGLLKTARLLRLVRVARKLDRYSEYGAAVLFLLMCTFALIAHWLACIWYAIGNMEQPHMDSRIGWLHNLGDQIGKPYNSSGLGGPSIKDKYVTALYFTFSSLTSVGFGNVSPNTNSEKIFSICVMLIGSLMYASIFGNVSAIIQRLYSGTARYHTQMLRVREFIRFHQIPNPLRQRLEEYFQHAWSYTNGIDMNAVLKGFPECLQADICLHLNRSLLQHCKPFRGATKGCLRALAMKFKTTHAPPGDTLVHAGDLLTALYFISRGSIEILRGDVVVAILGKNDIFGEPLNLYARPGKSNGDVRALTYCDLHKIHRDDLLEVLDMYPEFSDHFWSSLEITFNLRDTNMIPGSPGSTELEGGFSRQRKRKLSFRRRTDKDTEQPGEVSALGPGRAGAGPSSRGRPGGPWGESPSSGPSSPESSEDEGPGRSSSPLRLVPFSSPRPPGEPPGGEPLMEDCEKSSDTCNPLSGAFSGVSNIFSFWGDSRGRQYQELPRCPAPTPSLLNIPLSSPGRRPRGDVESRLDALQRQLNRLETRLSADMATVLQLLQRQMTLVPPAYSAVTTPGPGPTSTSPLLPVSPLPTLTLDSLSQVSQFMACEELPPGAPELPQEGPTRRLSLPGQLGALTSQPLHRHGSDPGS

[4] = test system: extracellular acetylcholine (ACh) levels; experiment: cerebral microdialysis, extracellular acetylcholine (ACh) levels in prefrontal cortex and hippocampus; assay type: in vivo, male Wistar rats; settings: rats
From the text: (§1) Prefrontal cortex and hippocampus, the two brain regions play important roles in cognition processes. Both histamine (HA) and acetylcholine (ACh) are transmitters playing important roles in cognition. The hypofunction of the central cholinergic and histaminergic systems is considered one of the pathogenic causes of the cognitive deficits characterizing dementias. Alterations in the extracellular levels of HA and ACh were investigated after single and simultaneous treatment with histamine H3 antagonists and acetylcholine esterase inhibitors (AChEIs) in the prefrontal cortex and hippocampus of conscious, freely moving male Wistar rats (4-6 animals/group) by cerebral microdialysis technique.
(§2) Microdialysis probes were implanted in the medial prefrontal cortex (MPFC) and hippocampus (HC), and perfused with artificial AChEI-free cerebrospinal fluid (aCSF). Compounds examined in the present study were administered in 1% hydroxypropyl-methylcellulose (HPMC) and 5% polyoxiethelen(8)-sorbitane-monooleat (Tween 80) into the stomach via surgically implanted catheter.
(§3) Thirty-min samples were collected and the temporal changes in the extracellular ACh and histamine HA were followed by high-sensitivity and selectivity liquid chromatography coupled with mass spectrometry/mass spectrometry (LC-MS/MS) analytical method. […]

[5] = rat, in vivo
[6] = test system: extracellular histamine (HA) levels; experiment: cerebral microdialysis, extracellular histamine (HA) levels in prefrontal cortex and hippocampus; assay type: in vivo, male Wistar rats; settings: rats
From the text: as §1, §2, §3

[7] = single treatment, 0.5 and 1 mg/kg into the stomach, MPFC and HC

Chain of rat histamine H3 receptors (Q9QYN8 whole entry): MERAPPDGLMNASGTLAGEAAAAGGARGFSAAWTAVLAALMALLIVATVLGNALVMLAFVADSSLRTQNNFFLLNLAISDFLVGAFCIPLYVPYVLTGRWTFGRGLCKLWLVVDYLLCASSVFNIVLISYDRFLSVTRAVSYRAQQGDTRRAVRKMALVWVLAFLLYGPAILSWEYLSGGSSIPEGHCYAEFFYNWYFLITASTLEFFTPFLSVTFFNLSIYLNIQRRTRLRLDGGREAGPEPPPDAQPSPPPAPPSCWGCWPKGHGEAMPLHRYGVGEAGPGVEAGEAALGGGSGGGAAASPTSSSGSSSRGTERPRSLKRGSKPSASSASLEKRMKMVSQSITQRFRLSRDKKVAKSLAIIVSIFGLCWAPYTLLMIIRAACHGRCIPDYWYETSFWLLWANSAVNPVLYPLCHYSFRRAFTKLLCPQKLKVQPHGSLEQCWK

Structure (SMILES) | Ki [1] [nM] | other results
CC(=O)N1CCC(Oc2ccc(OCCCN3CCCCC3)cc2)CC1 [Example 3, 1-(4-{4-[3-(piperidin-1-yl)-propoxy]-phenoxy}-piperidin-1-yl)-ethanone hydrochloride salt] | < 10 | –
C[C@@H]1CCCN1CCc1cc2cc(-c3ccc(C#N)cc3)ccc2o1 [ABT-239] | – | plasma protein binding [2]: High; cardiovascular side-effects, interaction with the hERG potassium channel [3]: interaction with the hERG potassium channel
C[C@@H]1CCCN1CCCOc1ccc(OC2CCN(C(=O)OC(C)(C)C)CC2)cc1 [Example 9, 4-(4-{3-[(2R)-2-methyl-pyrrolidin-1-yl]-propoxy}-phenoxy)-piperidine-1-carboxylic acid tert-butyl ester] | 10 to 50 | –
CC(=O)N1CCC(Oc2ccc(OCCCN3CCC[C@H]3C)cc2)CC1 [Example 11, 1-[4-(4-{3-[(2R)-2-methyl-pyrrolidin-1-yl]-propoxy}-phenoxy)-piperidin-1-yl]-ethanone hydrochloride salt] | 10 to 50 | extracellular ACh ([4]; simultaneous administration of 0.5 mg/kg donepezil and 0.5 or 1 mg/kg Compound 11, MPFC and HC): supra-additive increase; ACh levels [4, 7]: No significant changes; plasma and brain levels [5]: did not change; HA release evoked by Compound 11 ([6]; simultaneous administration with donepezil): not changed; extracellular HA level [6, 7]: rapid and expressed increase
c1cc(OC2CCNCC2)ccc1OCCCN1CCCCC1 [Example 2, 1-{3-[4-(piperidin-4-yl-oxy)-phenoxy]-propyl}-piperidine dihydrochloride salt] | 10 to 50 | –
CCN(C)C(=O)N1CCC(Oc2ccc(OCCCN3CCCCC3)cc2)CC1 [Example 8, N-ethyl-N-methyl-4-{4-[3-(piperidin-1-yl)-propoxy]-phenoxy}-piperidine-1-carboxamide hydrochloride salt] | 10 to 50 | –
CC(C)(C)OC(=O)N1CCC(Oc2ccc(OCCCN3CCCCC3)cc2)CC1 [Example 1, 4-{4-[3-(piperidin-1-yl)-propoxy]-phenoxy}-piperidine-1-carboxylic acid tert-butyl ester] | 10 to 50 | –
O=C(C1CCC1)N1CCC(Oc2ccc(OCCCN3CCCCC3)cc2)CC1 [Example 4, Cyclobutyl-(4-{4-[3-(piperidin-1-yl)-propoxy]-phenoxy}-piperidin-1-yl)-methanone hydrochloride salt] | 10 to 50 | –
CC1(C(=O)N2CCC(Oc3ccc(OCCCN4CCCCC4)cc3)CC2)CC1 [Example 5, (1-methyl-cyclopropyl)-(4-{4-[3-(piperidin-1-yl)-propoxy]-phenoxy}-piperidin-1-yl)-methanon hydrochloride salt] | < 10 | –
CCOC(=O)N1CCC(Oc2ccc(OCCCN3CCCCC3)cc2)CC1 [Example 6, Ethyl-4-{4-[3-(piperidin-1-yl)-propoxy]-phenoxy}-piperidine-1-carboxylate hydrochloride salt] | 10 to 50 | –
CCNC(=O)N1CCC(Oc2ccc(OCCCN3CCCCC3)cc2)CC1 [Example 7, N-ethyl-4-{4-[3-(piperidin-1-yl)-propoxy]-phenoxy}-piperidine-1-carboxamide] | 10 to 50 | –

Second part, led by results:

Ki [1] [nM] | Structure (SMILES) | other results
< 10 | CCNC(=O)N1CCC(Oc2ccc(OCCCN3CCC[C@H]3C)cc2)CC1 [Example 15, N-ethyl-4-(4-{3-[(2R)-2-methyl-pyrrolidin-1-yl]-propoxy}-phenoxy)-piperidine-1-carboxamide] | –
< 10 | C[C@@H]1CCCN1CCCOc1ccc(OC2CCN(C(=O)C3CCC3)CC2)cc1 [Example 12, cyclobutyl-[4-(4-{3-[(2R)-2-methylpyrrolidin-1-yl]-propoxy}-phenoxy)-piperidin-1-yl]-methanone hydrochloride salt] | –
< 10 | C[C@@H]1CCCN1CCCOc1ccc(OC2CCNCC2)cc1 [Example 10, 4-(4-{3-[(2R)-2-methyl-pyrrolidin-1-yl]-propoxy}-phenoxy)-piperidine dihydrochloride salt] | –
< 10 | CCOC(=O)N1CCC(Oc2ccc(OCCCN3CCC[C@H]3C)cc2)CC1 [Example 14, ethyl-4-(4-{3-[(2R)-2-methyl-pyrrolidin-1-yl]-propoxy}-phenoxy)-piperidine-1-carboxilate hydrochloride salt] | –
< 10 | CCN(C)C(=O)N1CCC(Oc2ccc(OCCCN3CCC[C@H]3C)cc2)CC1 [Example 16, N-ethyl-N-methyl-4-(4-{3-[(2R)-2-methyl-pyrrolidin-1-yl]-propoxy}-phenoxy)-piperidine-1-carboxamide hydrochloride salt] | –
< 10 | C[C@@H]1CCCN1CCCOc1ccc(OC2CCN(C(=O)C3(C)CC3)CC2)cc1 [Example 13, (1-methyl-cyclopropyl)-[4-(4-{3-[(2R)-2-methyl-pyrrolidin-1-yl]-propoxy}-phenoxy)-piperidin-1-yl]-methanone hydrochloride salt] | –
